Test results: patent US9868690B2, “Prodrugs of monomethyl fumarate (MMF)” (RATIOPHARM GMBH, priority 2013, dated 2018)
Counter-ions that a name gives are not always drawn.

Assay: Kinetic of MMF-release during incubation in intestinal fluid from the minipig
Type: in vitro ADME, Göttingen SPF minipig
Conditions: incubation in minipig small intestinal fluid diluted 1/20 v/v with 50 mM KH2PO4, pH 6.8, 37° C., samples 0-120 min (up to 1,320 min); reference DMF
Description: Investigation and Comparison of the Kinetic of MMF-Release of the Different Compounds of the Present Invention and DMF During Incubation in Intestinal Fluid from the Minipig
Intestinal fluid samples were prepared at CiToxLAB Scantox A/S. The samples were taken from 1 female Göttingen SPF minipig from CiToxLAB Scantox A/S standard stock, originally obtained from Ellegaard Göttingen Minipigs A/S, DK-4261 Dalmose, Denmark. The minipig was 10 months old and the body weight was 21 kg. The minipig was identified by an individual number tagged to the pinna of one ear (animal number is documented in the raw data).
The minipig was fasted for approximately 28 hours before sampling of intestinal fluid. On the day of sampling, the minipig was weighed and anaesthetised by an intramuscular injection in the neck or in the left hind leg (about 0.3 ml per kg body weight) of a mixture of Zoletil 50 Vet., Virbac, France (125 mg tiletamine and 125 mg zolazepam), Rompun Vet., Bayer, Germany (20 mg xylazine/ml, 6.5 ml), Ketaminol Vet., Veterinaria AG, Switzerland (100 mg ketamine/ml, 1.5 ml) and Methadon DAK, Nycomed Danmark, Denmark (10 mg methadon/ml, 2.5 ml).
Intestinal fluid was obtained by flushing one jejunal segment, measuring 30.2 cm, with saline. Intestinal fluid together with saline used for flushing was placed in centrifuge tubes. All samples were frozen at −70° C. and shipped on dry ice to the Sponsor for further use.
• Instrument: Acquity UPLC system coupled with a TQ detector (triple quadruple mass spectrometer) UPLC Method: • Column: Phenomenex Kinetex C18, 100 A, 2.6 μm (150×4.6 mm) • flow: 0.4 ml/min • split: appr. 100 μl/min to MS • temperature 30° C. • solvent system (isocratic): • Solvent A 25% water with 0.1% acetic acid • Solvent B 75% methanol with 0.1% acetic acid • stoptime: 6 min • autosampler temperature: 8° C. • injection volume: 4 μl • retention time: MMF: 4.3 min • MEF: 4.7 min Mass Spectrometry • software: Masslynx 4.1 • detection mode: electrospray/negative ions (ESP−) • capillary voltage: 2.3 kV • source temperature: 100° C. • desolvation temperature: 450° C. • cone voltage: 18 V • desolvation gas: N2, 650 L/h • cone gas: N2, 20 L/h • collision gas: argon, appr. 3.3*10^−3 mbar • collision energy: 11 eV • MRM [m/z]: 128.94>85.03 Monomethylfumarate dwell:200 msec • 142.99>99.06 Monoethylfumarate (ISTD) dwell:200 msec 2.1.2. Stock and Calibration Solutions
Calibration solutions were prepared by serial dilution of SSMMF; diluted small intestinal fluid (diluted by 1/20 v/v with 50 mM KH2PO4, pH 6.8; (dil IF) was used as matrix. The dilution scheme is given below:
50 μl sample (calibration solution or sample of an incubation experiment with MMF prodrugs) was mixed with 50 μl WSISTD, 20 μl formic acid and 100 μl acetonitrile. This mixture was vortexed for 15 sec and centrifuged (13,000 rpm, 3 min). Thereafter, 4 μl of the supernatant were subjected to LC-MS analysis.
2.2. Incubation Experiments with DMF (Reference) and Compounds of the Invention
Stock solutions were prepared in DMSO or in DMSO with 10% (v/v) with water. Concentrations in stock solutions were 5.00, 2.50 and 1.67 mmol for compounds with one, two and three molar MMF equivalents.
In a HPLC glass vial, 8 μl of stock solution were mixed with 792 μl dil IF and the mixture was stirred (250 rpm) in a water bath (T=37° C.).
Immediately after mixing as well as at t=15 min, 30 min, 60 min, 90 min and 120 min, 50 μl were withdrawn and prepared for LC-MS analysis as described in chapter. 2.1.3.
Incubations were continued and in case the result of analysis of the 120 min indicated the presence of remaining intact MMF-prodrug, additional samples were taken (t=360 or 420 min and at 1,260 or 1,320 min) and analysed.
The concentration/peak area ratio data pairs were subjected to regression analysis with 1/x weighting and the resulting calibration equation was used to quantify the MMF content in incubation samples.
In the case of `COC(=O)/C=C/C(=O)OCCN1CCS(=O)(=O)CC1` [Example 1a, (E)-But-2-enedioic acid 2-(1,1-dioxo-1-lambda*6*-thiomorpholin-4-yl)-ethyl ester methyl ester], the “hydrolysis to MMF (MMF release, LC-MS) compared with DMF” value (“hydrolysis to MMF … compared with DMF” for short) is reported as “significantly slower hydrolysis to MMF than DMF”. With `COC(=O)/C=C/C(=O)OCCN1CC[S+]([O-])CC1` [Example 1a′, (E)-But-2-enedioic acid methyl ester 2-(1-oxo-1lambda*4*-thiomorpholin-4-yl)-ethyl ester] the “hydrolysis to MMF … compared with DMF” value was “significantly slower hydrolysis to MMF than DMF”. For `COC(=O)/C=C/C(=O)OCCN1CCN(C)CC1` [Example 1b, (E)-But-2-enedioic acid methyl ester 2-(4-methyl-piperazin-1-yl) ethyl dihydrochloride], the “hydrolysis to MMF … compared with DMF” value was “significantly slower hydrolysis to MMF than DMF”. For `COC(=O)/C=C/C(=O)OCCN1CCN(C(C)C)CC1` [Example 1c, (E)-But-2-enedioic acid methyl ester 2-(4-isopropyl-piperazin-1-yl) ethyl dihydrochloride], the “hydrolysis to MMF … compared with DMF” value was “significantly slower hydrolysis to MMF than DMF”. In the case of `COC(=O)/C=C/C(=O)OCCN(CCOC(=O)/C=C/C(=O)OC)CCOC(=O)/C=C/C(=O)OC` [Example 2, tris-[2-(E)-3-methoxycarbonylacryloyloxy)-ethyl]amine hydrochloride], the “hydrolysis to MMF … compared with DMF” value is reported as “significantly slower hydrolysis to MMF than DMF”. With `COC(=O)/C=C/C(=O)OCC(COC(=O)/C=C/C(=O)OC)OC(=O)/C=C/C(=O)OC` [Example 3, (E)-but-2-enedioic acid 2,3-bis-(-3-methoxycarbonyl-acryloyloxy)-propyl ester methyl ester] the “hydrolysis to MMF … compared with DMF” value was “significantly slower hydrolysis to MMF than DMF”. For `COC(=O)/C=C/C(=O)OCOP(=O)(OC(C)(C)C)OC(C)(C)C` [Example 4a, (E)-but-2-enedioic acid di-tert-butoxy-phosphoryloxymethyl ester methyl ester], the “hydrolysis to MMF … compared with DMF” value was “significantly slower hydrolysis to MMF than DMF”. With `COC(=O)/C=C/C(=O)OCCOC(=O)[C@@H](N)C(C)C` [Example 5a, (E)-but-2-enedioic acid 2-((S)-2-amino-3-methyl-butyrryloxy)-ethyl ester methyl ester hydrochloride] the “hydrolysis to MMF … compared with DMF” value was “significantly slower hydrolysis to MMF than DMF”. In the case of `COC(=O)/C=C/C(=O)OCc1oc(=O)oc1C` [Example 6, (E)-but-2-enedioic acid methyl ester5-methyl-2-oxo-[1,3]dioxol-4-yl methyl ester], the “hydrolysis to MMF … compared with DMF” value is reported as “significantly slower hydrolysis to MMF than DMF”.
